How the values were obtained:
[1] = Metabolite radioprofiling of plasma, urine and feces, rat; type: in vivo; conditions: for Feces % Dose as the component / Plasma 0-24 h AUC (% Sample) / Plasma 0-24 h AUC of the radioactive component / Urine % Dose as the component: rat (5 mg/kg) oral 14C-talarozole; for Urine % Dose as the component: urine 0-48 h; for Plasma 0-24 h AUC, total radioactivity: rat (5 mg/kg)
Description: (§1) Male and female CD-1 mice (19-29 g, n=3/sex/timepoint for blood sampling, n=3/sex for mass balance), Sprague Dawley rats (0.205-0.237 kg, n=3/sex/timepoint for blood sampling, n=3/sex for mass balance) and beagle dogs (7-12 kg, n=3) were given a single oral dose of ^14C-labeled talarozole in 20% hydroxyl propyl B-cyclodextrin at 5 mg/kg. Healthy human male volunteers (76.6-107.9 kg, n=5) were dosed with a single oral dose of 4 mg ^14C-labeled rambazole in ethanol. Blood samples were collected at selected timepoints after dosing and plasma was prepared. Urine and feces were collected for 2, 7 and 8 days. For the human study, up to 288 hours post-dose and semen samples were obtained 2 and 4 hours post-dose. Radioactivity in various matrices were measured by liquid scintillation counting (LSC). Select plasma, urine and fecal samples were subjected to metabolite radioprofiling and characterization, and in the human study, semen samples. Metabolite radioprofiling was accomplished using HPLC with fraction collection followed by solid scintillation counting (Packard TopCount—see representative HPLC run data below). Radioactivity peaks were integrated and the percent distribution of individual metabolites in each sample was determined. Metabolite characterization and identification were accomplished by LC/MS (Finnigan MAT LCQ in positive or negative ESI mode) in conjunction with an appropriate radioactive monitor (RAM). For all species, plasma, urine and fecal samples were pooled across animals and analyzed. Plasma was analyzed at several time-points out to 24 hours. Urine was analyzed over one time-interval (0-24 hours for mouse, 0-48 hours for rat, 0-72 hours for dog, and for in the human study, 0-12, 12-24, 24-48, 0-48 hours. Feces was analyzed over 2-3 time intervals (0-24 and 24-48 hours for mouse and rat; 0-24, 24-48, and 48-72 hours for male dogs; and 24-48, 48-72, and 72-96 hours for female dogs). In the human study, feces were analyzed for 0-48, 48-96, 96-144, 144-192, 192-288, 0-144, 144-288 and 0-288 hours. PK parameters for ^14C-labeled talarozole radioactivity was determined from the mean (mouse and rat) or individual (dog and human) plasma concentration versus time data. PK parameter values were determined by non-compartmental methods using WinNonlin™. • HPLC data for separations described in Example 1: • LC system: Waters 2695 Separations Module • Analytic column: C18 column, 4.6×150 mm, 3 μm • Flow rate: 1.0 mL/min • Mobile phase A: 2% HCOOH in H2O (pH 3.2) • Mobile phase B: CH3CN • Gradient: […]

[2] = Metabolite radioprofiling of plasma, urine, feces and semen, human; conditions: in vivo
Description: as §1

[3] = Excretion of radioactivity (mass balance), human; type: in vivo; conditions: male, 0-288, oral 4 mg
Excerpt: Mouse, rat, dog and human were the species used for the safety evaluations of talarozole. More specifically, the disposition of ^14C-labeled talarozole was examined in mice, rats, dogs and humans after oral administration to provide information regarding the absorption, metabolism and excretion of talarozole.
as §1

[4] = listed as 14C-labeled talarozole

## CCC(CC)[C@H](c1ccc(Nc2nc3ccccc3s2)cc1)n1cncn1 [Talarozole, (R)—N-[4-[2-ethyl-1-(1H-1,2,4-triazole-1-yl)butyl]phenyl]-2-benzothiazolamine]
[1]; female
  Feces % Dose as the component: 4.60 % Dose
  Plasma 0-24 h AUC (% Sample): 39.17%
  Plasma 0-24 h AUC of the radioactive component: 3523.2 ng·h/g
  Urine % Dose as the component: 1.90 % Dose
  Plasma 0-24 h AUC, total radioactivity: 8995.6 ng*hr/g F
[1]; male
  Feces % Dose as the component: 5.34 % Dose
  Plasma 0-24 h AUC (% Sample): 11.05%
  Plasma 0-24 h AUC of the radioactive component: 778.38 ng·h/g
  Urine % Dose as the component: 0.10 % Dose
  Plasma 0-24 h AUC, total radioactivity: 7045.6 ng·h/g/M
[2]; human, po, 0.067 mg/kg
  Plasma 0-24 h AUC of the radioactive component: 12.74 ng·h/g
[2]
  Semen (radioactive component in semen samples): minor radioactive components
  Urine % Dose as the component: not found
[2]; male, human, 0.067 mg/kg
  Plasma 0-24 h AUC, total radioactivity: 211.3 ng·h/g
[2]; male, human, po, 0.067 mg/kg
  Plasma 0-24 h AUC (% Sample), % of total plasma radioactivity: 6.03%
[3]
  Total % Recovered: 87.7%
[3]; listed as 14C-Talarozole
  % in Feces (percent of dose recovered, total radioactivity): 80.36%
  % in Urine (percent of dose recovered, total radioactivity): 7.29%
[3]; [4]
  % in Feces (percent of dose recovered, total radioactivity): 72.2%
  % in Urine (percent of dose recovered, total radioactivity): 7.3%

From patent US8399495B2, “Talarazole metabolites” (Stiefel Laboratories, Inc., priority 2006, dated 2013)
